Series [1] in a line: Liposome size by dynamic light scattering. It counts as physicochemical. Particulars: liposomes loaded with carfilzomib, before lyophilizing. The protocol:
The lipid concentration is determined by measuring the cholesterol by HPLC using an Agilent 1100 HPLC with and Agilent Zorbax 5 um, […], Eclipse XDB-C8 column and a mobile phase of A=0.1% TFA, B=0.1% TFA/MeOH with an isocratic elution of 99% B. The flow rate is 1.0 mL/min, column temperature is 50° C., 10 μL injection and detection by absorbance at 205 nm. The retention time of cholesterol is 4.5 min. The liposome size is measured by dynamic light scattering.
See Example 1, Carfilzomib liposome entrapment by remote loading for details on how the liposomes were made, purified and characterized.

The nature of series [2]: Reverse gradient-directed drug release from liposomes. It counts as physicochemical. Particulars: for % Carfilzomib Released: 65 C 30 min. On the procedure: Liposomes were loaded with carfilzomib as described in Example 1 and were purified into deionized water. The sample was divided into two aliquots. To the first aliquot, concentrated Hepes pH 7.4 and NaCl was added so that the final concentration was 5 mM Hepes, 145 mM NaCl (HBS). To the second aliquot, concentrated ammonium sulfate was added so that the final concentration was 250 mM. No obvious physical changes were initially observed. The samples were then heated at 65° C. for 30 min. The samples were transferred to clean eppendorf tubes and centrifuged for 10,000 rpm for 5 min after which the supernatants and precipitates were separated and tested for carfilzomib content by HPLC assay. Released drug precipitated, liposome encapsulated drug remained in the supernatant. The % carfilzomib released was calculated by […]

Experimental findings from US20140220110A1, “REMOTE LOADING OF SPARINGLY WATER-SOLUBLE DRUGS INTO LIPOSOMES” (ZONEONE PHARMA, INC., priority 2013, published 2014) are described below.

As to `CC(C)C[C@H](NC(=O)[C@H](CCc1ccccc1)NC(=O)CN1CCOCC1)C(=O)N[C@@H](Cc1ccccc1)C(=O)N[C@@H](CC(C)C)C(=O)[C@@]1(C)CO1` [carfilzomib], the PDI was 0.062 in series [1] ((NH4)2SO4, drug added quickly); 0.035 in series [1] ((NH4)2SO4, drug added slowly); 0.08 in series [1] (Mellitic Acid); 0.039 in series [1] (Napthelenedisulfonic acid). Also, the Z-ave was 108 nm in series [1] ((NH4)2SO4, drug added quickly); 109.2 nm in series [1] ((NH4)2SO4, drug added slowly); 105.5 nm in series [1] (Mellitic Acid); 111.9 nm in series [1] (Napthelenedisulfonic acid). Besides, the “drug released with reverse gradient over control with no reverse gradient” value in series [2] stood at 6.5 fold. The figures for the “% Carfilzomib Released” value in series [2] (250 mM ammonium sulfate outside (reverse gradient)) and in series [2] (Hepes buffered saline (no reverse gradient)) were 68.5 ± 1.82% and 10.6 ± 0.28%, respectively. Moreover, in series [2] (after loading and release by reverse gradient), the “degradation of released drug (HPLC chromatogram against starting material)” value is recorded as “no degradation of carfilzomib had taken place”.
